# Reference: US20110059081A1, “METHODS AND COMPOSITIONS FOR THE TREATMENT OF RECEPTOR TYROSINE KINASE MEDIATED DISEASES OR DISORDERS” (QUINTILES TRANSNATIONAL CORP., priority 2009, published 2011)
# Key:
# Type in all cases: cell-based
# [1] = test system: MAPK signaling (pAKT, pErk1/2); assay: Western blot of pAKT and pErk1/2 in KRAS mutant A549 cells treated with EGF, Methotrexate, C225 or combination
# Description: For Methotrexate treatments, A549 lung tumor cells were treated with 1.0 μM Methotrexate in full serum media for 24 hours followed by withdrawal of Methotrexate and serum starvation (1.0% FBS) for 48 hours in the absence or presence of 5 ng/ml EGF added for the final 10 minutes before harvest of the cells.
# [2] = test system: MAPK signaling (pErk1/2); assay: Western blot of pErk1/2 (MAPK signaling) in A549 cells treated with Methotrexate, with or without EGF; settings: as little as 1.0 μM for 24 hours, then serum starvation 48 hours, with or without 10 ng/ml EGF for final 10 minutes (FIG. 3)
# Description: Additionally, in vitro cell signaling studies were conduced to examine MAPK signaling in RAS mutant cells treated with Methotrexate. For Methotrexate treatments, A549 lung tumor cells were treated with 1.0 or 10.0 μM Methotrexate in full serum media for 24 hours followed by withdrawal of Methotrexate and serum starvation (1.0% FBS) for 48 hours in the absence or presence of 10 ng/ml EGF added for the final 10 minutes before harvest of the cells. Next, whole cell extracts were isolated for Western blot analysis of pErk1/2 and pAkt. The presence of β-actin served as an internal control for loading differences between lanes.
# [3] = test system: mutant Ras; assay: Immunocytochemistry staining for RAS in A549 lung tumor cells; settings: A549 lung tumor cell line, 1.0 micromolar, 48 hours
# Description: In an exemplary method, the A549 lung tumor cell line was treated for 48 hours with 1.0 micromolar Methotrexate followed by immunocytochemistry staining for RAS on slides.
Molecule,"inhibition of pErk1/2 ([1]; EGF stimulation (5 ng/ml), agent alone: 1.0 μM Methotrexate or C225 up to 25 μg/ml)",amount of detectable pAKT and pErk1/2 ([1]; agent by itself (FIG. 4)),basal and EGF-induced pErk1/2 levels [2],overall abundance of mutant Ras ([3]; vs untreated cells (FIGS. 1 and 2)),localization of mutant Ras ([3]; vs untreated cells (diffuse and at the membrane)),activation of the MAPK pathway (pErk1/2 induction) ([1]; EGF stimulation 5 ng/ml for final 10 minutes)
CN(Cc1cnc2nc(N)nc(N)c2n1)c1ccc(C(=O)N[C@@H](CCC(=O)O)C(=O)O)cc1 [Methotrexate],only slightly inhibited,slight reduction,reduced both basal and EGF-induce pErk1/2 levels,diminished,mislocalization from the plasma membrane resulting in highly cytoplasmic staining of mutant Ras,
"EGF: epidermal growth factor used to stimulate A549 cells (NSDSECPLSHDGYCLHDGVCMYIEALDKYACNCVVGYIGERCQYRDLKWWELR; Epidermal growth factor; UniProt P01133 971-1023, looked up)",,,,,,potently activated
